The test has as its system T1, mechano-electrical transducer (MET) channel.
T1 construct: native channel in CD-1 mouse cochlear outer hair cells (organotypic cultures)
The test is described as follows: whole-cell patch clamp of MET currents, extracellular block at -104 mV, […] Ca2+. It is filed as cell-based, Mus musculus. To be noted: read-out: Kd. (The patch-clamp technique gives a direct electrical read-out from membranes.)

pIC50: −log10 of the molar value.

In the case of `COc1cc2c3cc1Oc1cc(ccc1O)C[C@@H]1c4c(cc(OC)c(O)c4Oc4ccc(cc4)C[C@@H]3N(C)CC2)CC[N+]1(C)C` [dTC, d-Tubocurarine], the pIC50 was 5.66.
As for berbamine, the figure is 5.55.

The values are drawn from paper PMC5591855, “d-Tubocurarine and Berbamine: Alkaloids That Are Permeant Blockers of the Hair Cell's Mechano-Electrical Transducer Channel and Protect from Aminoglycoside Toxicity” (Frontiers in Cellular Neuroscience, 2017).
